System: laminin 5
Test: Laminin 5 productivity evaluation test (keratinocyte culture, sandwich ELISA)
Type: cell-based, human
Conditions: for laminin 5 productivity potentiating action: result in words
Procedure: (1) Culture of Keratinocytes
Keratinocytes were isolated from the human preputium and cultured in an epidermal cell growth medium (KGM) having a low calcium concentration. To this culture medium were added bovine pituitary extract and EGF. After cultivation in KGM up to the fourth generation, the cells were treated with trypsin and EDTA to suspend adherent cells. Then, the culture was filtered to remove cell aggregates and thereby to obtain a homogeneous cell suspension. The cells were collected by centrifugation and resuspended in DMEM-F12 (2:I)-0.1% BSA so as to give a cell density of8×10^4 per ml. Each 0.5 ml of this cell suspension was added to 0.5 ml of the same medium containing a twofold concentration of each test sample. Using a 24-well plate, incubation was carried out at 37° C. for 24 hours. After completion of the incubation, the culture supernatant was transferred to an Eppendorf tube and centrifuged at 10,000 rpm for 5 minutes. The supernatant was transferred to a new tube and stored at −20° C. till the day for the determination of laminin 5. In order to solubilize laminin 5 in the cells and that bound to the culture plastics, a tris-HCl buffer (pH 7.4) containing various surfactants was added to each well and allowed to stand at −20° C. overnight. On the following day, the mixture was ultrasonicated and frozen again. On the following day, the mixture was thawed again and centrifuged at 10,000 rpm for 5 minutes. The supernatant was transferred to a tube and stored at −20° C. till the day for the determination of laminin 5.
(2) Determination of Laminin 5 by the Sandwich ELISA Method
Laminin 5 present in the culture supernatant and the cell layer was determined by the sandwich ELISA method. A monoclonal antibody (BM165) to the laminin α3 chain of laminin 5 was attached to a solid layer of a 96-well ELISA plate. In order to determine laminin 5 in sandwiched manner, a monoclonal antibody (6F12) to the laminin β3 chain was previously biotinized (b-6F12) and used as the other antibody. […] A sample was added to each of the wells in which a 3% gelatin-phosphate buffer solution containing b-6F12 had previously been placed. The final dilution ratio of the sample in the wells was ¼ for the culture medium and 1/10 for the cell layer. After the antigen-antibody reaction was carried out at 37° C. for 2 hours, the plate was washed, and an avidin HRP (horseradish peroxidase) solution was added thereto and reacted for a period of 30 minutes to 1 hour. After washing, a solution of ABTS serving as a substrate for HRP was added thereto and the absorbance at 405 nm was measured with an ELISA plate reader. A calibration curve was constructed over a range of 0 to 40 ng/ml.
The sum of the laminin 5 liberated into the culture medium and that remaining in the cell layer was calculated. The yield of laminin 5 was expressed by the relative value to that of the sample to which none of the plant extracts was added (control).

[1] = Table 3 (comparative example), concentration 1 μM
[2] = Table 3 (comparative example), concentration 10 μM
[3] = Table 3 (comparative example), concentration 100 μM

SMILES	Laminin 5 yield (%) Relative to the Control (Table 2, concentration 1 μM) [%]	Laminin 5 yield (%) Relative to the Control (Table 2, concentration 10 μM) [%]	laminin 5 productivity potentiating action	Laminin 5 yield (%) Relative to the Control [1] [%]	Laminin 5 yield (%) Relative to the Control [2] [%]	Laminin 5 yield (%) Relative to the Control [3] [%]	Laminin 5 yield (%) Relative to the Control (Table 2, concentration 0.1 μM) [%]
C[C@H]1[C@H](C)CC[C@]2(C)CC[C@]3(C)C4=C(CC[C@@]3(C)[C@H]12)[C@@]1(C)CC[C@H](O)C(C)(C)C1CC4 (stereo partly drawn) [Isobauerenol, isobauerenol]	132	137	exhibiting laminin 5 productivity potentiating action				
O=c1c(-c2ccc(O)cc2)coc2c([C@@H]3O[C@H](CO)[C@@H](O)[C@H](O)[C@H]3O)c(O)ccc12 [Puerarin, daidzein-8-glucoside]			little or no laminin 5 productivity potentiating action				
O=c1c(-c2ccc(O)c(O)c2)coc2c([C@@H]3O[C@H](CO)[C@@H](O)[C@H](O)[C@H]3O)c(O)ccc12 [Glucoside, 8-β-D-glucopyranosyl-7-hydroxy-3-(3′,4′-dihydroxyphenyl)-4H-1-benzopyran-4-one]				93	95	99	
C=C(C)[C@@H]1CC[C@]2(C)CC[C@]3(C)[C@H](CC[C@@H]4[C@@]5(C)CC[C@H](O)C(C)(C)[C@@H]5CC[C@]43C)[C@@H]12 [Lupeol, lupeol]	154		exhibiting laminin 5 productivity potentiating action				122
O=c1c(-c2ccc(O)cc2)coc2cc(O[C@@H]3O[C@H](CO)[C@@H](O)[C@H](O)[C@H]3O)ccc12 [daidzin, daidzein-7-glucoside]			little or no laminin 5 productivity potentiating action				
O=c1c(-c2ccc(O)cc2)coc2cc(O)ccc12 [Daidzein, 4′,7-dihydroxyisoflavone]			little or no laminin 5 productivity potentiating action	93	99	74	

— patent US20040202638A1, “Substance capable of potentiating laminin 5 productivity in epidermal cells and utilization thereof” (priority 2001, published 2004)
